Measured values from ChEMBL document CHEMBL4266031, “Total Synthesis of Violaceoid A and (-)- and (+)-Violaceoid B” (2018).

Columns and labels:
MCF7 = test: Antiproliferative activity against human MCF7 cells after 48 hrs by WST8 assay; assay type: functional; settings: for GI50: MCF7, 48 h
Hs-578T = test: Antiproliferative activity against human Hs 578T cells after 48 hrs by WST8 assay; assay type: functional

Compound	Activity (MCF7)	GI50 (MCF7) [µM]	Activity (Hs-578T)	GI50 (Hs-578T) [µM]
CCCCC/C=C/c1c(O)ccc(O)c1CO	Dose-dependent effect	61.5	Dose-dependent effect	59.7
CCCCCC[C@@H](O)c1c(O)ccc(O)c1CO		> 100		> 100
CCCCCC[C@H](O)c1c(O)ccc(O)c1CO		> 100		> 100
